How the values were obtained:
[1] = system: horseweed; assay: Test C postemergence; type: in vivo, Erigeron canadensis; settings: 10 days
Outline: (§1)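 Visual injury ratings on a 0–100 scale (100 = complete control) were made against untreated controls 10 days after treatment in the greenhouse. Compounds, formulated with surfactant in non-phytotoxic solvent, were sprayed on soil preemergence or onto one- to two-leaf plants 2–10 cm tall postemergence.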

[2] = system: rice; assay: Test D flooded paddy test; type: in vivo, Oryza sativa; settings: 250 g ai/ha, applied to paddy water, visual rating after 13 to 14 days, scale 0 to 100 (0 no effect, 100 complete control)
Outline: (§2)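 Plants grown to the 2-leaf stage; pots flooded to 3 cm above soil at treatment and held at that depth throughout. Test compounds applied directly to the paddy water. After 13 to 14 days in a greenhouse, response was rated visually versus controls on a 0 (no effect) to 100 (complete control) scale.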

[3] = system: ryegrass, Italian; assay: Test C preemergence; type: in vivo, Lolium multiflorum; settings: 0 to 100 scale (0 no effect, 100 complete control); for Plant response rating, Ryegrass, Italian: Preemergence, 500 g ai/ha, visual rating after 10 days; for Ryegrass, Italian plant response rating: Test C, preemergence, 125 g ai/ha
Outline: as §1

[4] = system: barnyardgrass; assay: Test C postemergence; type: in vivo, Echinochloa crusgalli; settings: 10 days
Outline: as §1

[5] = system: sedge, umbrella; assay: Test D flooded paddy test; type: in vivo, Cyperus difformis; settings: 250 g ai/ha, applied to paddy water, visual rating after 13 to 14 days, scale 0 to 100 (0 no effect, 100 complete control)
Outline: as §2

[6] = system: corn; assay: Test C preemergence; type: in vivo, Zea mays; settings: 0 to 100 scale (0 no effect, 100 complete control); for Plant response rating, Corn: Preemergence, 500 g ai/ha, visual rating after 10 days; for Corn plant response rating: Test C, preemergence, 125 g ai/ha
Outline: as §1

[7] = system: kochia; assay: Test C preemergence; type: in vivo, Bassia scoparia; settings: 0 to 100 scale (0 no effect, 100 complete control); for Plant response rating, Kochia: Preemergence, 500 g ai/ha, visual rating after 10 days; for Kochia plant response rating: Test C, preemergence, 125 g ai/ha
Outline: as §1

[8] = system: galium; assay: Test C postemergence; type: in vivo, Galium aparine; settings: 10 days
Outline: as §1

[9] = system: wheat; assay: Test C preemergence; type: in vivo, Triticum aestivum; settings: 0 to 100 scale (0 no effect, 100 complete control); for Plant response rating, Wheat: Preemergence, 500 g ai/ha, visual rating after 10 days; for Wheat plant response rating: Test C, preemergence, 125 g ai/ha
Outline: as §1

[10] = system: ryegrass, Italian; assay: Test C postemergence; type: in vivo, Lolium multiflorum; settings: 10 days
Outline: as §1

[11] = system: pigweed, palmer; assay: Test C preemergence; type: in vivo, Amaranthus palmeri; settings: 0 to 100 scale (0 no effect, 100 complete control); for Plant response rating, Pigweed, Palmer: Preemergence, 500 g ai/ha, visual rating after 10 days; for Pigweed, Palmer plant response rating: Test C, preemergence, 125 g ai/ha
Outline: as §1

[12] = system: soybean; assay: Test C postemergence; type: in vivo, Glycine max; settings: 10 days
Outline: as §1

[13] = system: green foxtail; assay: Test C postemergence; type: in vivo, Setaria viridis; settings: 10 days
Outline: as §1

[14] = system: barnyardgrass; assay: Test C preemergence; type: in vivo, Echinochloa crusgalli; settings: 0 to 100 scale (0 no effect, 100 complete control); for Plant response rating, Barnyardgrass: Preemergence, 500 g ai/ha, visual rating after 10 days; for Barnyardgrass plant response rating: Test C, preemergence, 125 g ai/ha
Outline: as §1

[15] = system: barnyardgrass; assay: Test D flooded paddy test; type: in vivo, Echinochloa crus-galli; settings: 250 g ai/ha, applied to paddy water, visual rating after 13 to 14 days, scale 0 to 100 (0 no effect, 100 complete control)
Outline: as §2

[16] = system: oat, wild; assay: Test C postemergence; type: in vivo, Avena fatua; settings: 10 days
Outline: as §1

[17] = system: ducksalad; assay: Test D flooded paddy test; type: in vivo, Heteranthera limosa; settings: 250 g ai/ha, applied to paddy water, visual rating after 13 to 14 days, scale 0 to 100 (0 no effect, 100 complete control)
Outline: as §2

[18] = system: soybean; assay: Test C preemergence; type: in vivo, Glycine max; settings: 0 to 100 scale (0 no effect, 100 complete control); for Plant response rating, Soybean: Preemergence, 500 g ai/ha, visual rating after 10 days; for Soybean plant response rating: Test C, preemergence, 125 g ai/ha
Outline: as §1

[19] = system: wheat; assay: Test C postemergence; type: in vivo, Triticum aestivum; settings: 10 days
Outline: as §1

[20] = system: green foxtail; assay: Test C preemergence; type: in vivo, Setaria viridis; settings: 0 to 100 scale (0 no effect, 100 complete control); for Plant response rating, Foxtail, Green: Preemergence, 500 g ai/ha, visual rating after 10 days; for Foxtail, Green plant response rating: Test C, preemergence, 125 g ai/ha
Outline: as §1

[21] = system: blackgrass; assay: Test C postemergence; type: in vivo, Alopecurus myosuroides; settings: 10 days
Outline: as §1

[22] = system: ragweed; assay: Test C preemergence; type: in vivo, Ambrosia artemisiifolia; settings: 0 to 100 scale (0 no effect, 100 complete control); for Plant response rating, Ragweed: Preemergence, 500 g ai/ha, visual rating after 10 days; for Ragweed plant response rating: Test C, preemergence, 125 g ai/ha
Outline: as §1

[23] = system: pigweed, palmer; assay: Test C postemergence; type: in vivo, Amaranthus palmeri; settings: 10 days
Outline: as §1

[24] = system: corn; assay: Test C postemergence; type: in vivo, Zea mays; settings: 10 days
Outline: as §1

[25] = system: ragweed; assay: Test C postemergence; type: in vivo, Ambrosia artemisiifolia; settings: 10 days
Outline: as §1

[26] = system: kochia; assay: Test C postemergence; type: in vivo, Bassia scoparia; settings: 10 days
Outline: as §1

[27] = system: oat, wild; assay: Test C preemergence; type: in vivo, Avena fatua; settings: 0 to 100 scale (0 no effect, 100 complete control); for Plant response rating, Oat, Wild: Preemergence, 500 g ai/ha, visual rating after 10 days; for Oat, Wild plant response rating: Test C, preemergence, 125 g ai/ha
Outline: as §1

[28] = system: blackgrass; assay: Test C preemergence; type: in vivo, Alopecurus myosuroides; settings: 0 to 100 scale (0 no effect, 100 complete control); for Plant response rating, Blackgrass: Preemergence, 500 g ai/ha, visual rating after 10 days; for Blackgrass plant response rating: Test C, preemergence, 125 g ai/ha
Outline: as §1

[29] = 125 g ai/ha, postemergence, 0 to 100 scale, 0 no effect, 100 complete control
[30] = Postemergence, 500 g ai/ha, visual 0 to 100 scale (0 no effect, 100 complete control)

COc1c(C)cc(-n2cnc(C(C)C)n2)cc1C(=O)N1C[C@H](C)Oc2c(Cl)cccc21 [Compound 260]
Plant response rating, Horseweed [1, 29]: 0 | Plant response rating, Horseweed [1, 30]: 10 | Plant response rating, Rice (Flood) [2]: 0 | Plant response rating, Ryegrass, Italian [3]: 90 | Ryegrass, Italian plant response rating [3]: 80 | Plant response rating, Barnyardgrass [4, 29]: 10 | Plant response rating, Barnyardgrass [4, 30]: 50 | Plant response rating, Sedge, Umbrella (Flood) [5]: 0 | Plant response rating, Corn [6]: 10 | Corn plant response rating [6]: 0 | Plant response rating, Kochia [7]: 80 | Kochia plant response rating [7]: 60 | Plant response rating, Galium [8, 29]: 90 | Plant response rating, Galium [8, 30]: 100 | Plant response rating, Wheat [9]: 20 | Wheat plant response rating [9]: 20 | Plant response rating, Ryegrass, Italian [10, 29]: 60 | Plant response rating, Ryegrass, Italian [10, 30]: 60 | Plant response rating, Pigweed, Palmer [11]: 100 | Pigweed, Palmer plant response rating [11]: 40 | Plant response rating, Soybean [12, 29]: 100 | Plant response rating, Soybean [12, 30]: 100 | Plant response rating, Foxtail, Green [13, 29]: 10 | Plant response rating, Foxtail, Green [13, 30]: 60 | Plant response rating, Barnyardgrass [14]: 90 | Barnyardgrass plant response rating [14]: 70 | Plant response rating, Barnyardgrass (Flood) [15]: 0 | Plant response rating, Oat, Wild [16, 29]: 30 | Plant response rating, Oat, Wild [16, 30]: 50 | Plant response rating, Ducksalad (Flood) [17]: 0 | Plant response rating, Soybean [18]: 40 | Soybean plant response rating [18]: 10 | Plant response rating, Wheat [19, 29]: 20 | Plant response rating, Wheat [19, 30]: 20 | Plant response rating, Foxtail, Green [20]: 100 | Foxtail, Green plant response rating [20]: 100 | Plant response rating, Blackgrass [21, 29]: 20 | Plant response rating, Blackgrass [21, 30]: 30 | Plant response rating, Ragweed [22]: 40 | Ragweed plant response rating [22]: 0 | Plant response rating, Pigweed, Palmer [23, 29]: 10 | Plant response rating, Pigweed, Palmer [23, 30]: 50 | Plant response rating, Corn [24, 29]: 10 | Plant response rating, Corn [24, 30]: 60 | Plant response rating, Ragweed [25, 29]: 0 | Plant response rating, Ragweed [25, 30]: 0 | Plant response rating, Kochia [26, 29]: 60 | Plant response rating, Kochia [26, 30]: 90 | Plant response rating, Oat, Wild [27]: 90 | Oat, Wild plant response rating [27]: 30 | Plant response rating, Blackgrass [28]: 80 | Blackgrass plant response rating [28]: 60

COC[C@H]1CN(C(=O)c2cc(-n3cnc(C(C)(C)C)n3)ccc2C)c2cccc(Cl)c2O1 [Compound 264]
Plant response rating, Horseweed [1, 29]: 20 | Plant response rating, Horseweed [1, 30]: 60 | Plant response rating, Rice (Flood) [2]: 10 | Plant response rating, Ryegrass, Italian [3]: 90 | Ryegrass, Italian plant response rating [3]: 90 | Plant response rating, Barnyardgrass [4, 29]: 50 | Plant response rating, Barnyardgrass [4, 30]: 90 | Plant response rating, Sedge, Umbrella (Flood) [5]: 80 | Plant response rating, Corn [6]: 50 | Corn plant response rating [6]: 30 | Plant response rating, Kochia [7]: 100 | Kochia plant response rating [7]: 90 | Plant response rating, Galium [8, 29]: 100 | Plant response rating, Galium [8, 30]: 100 | Plant response rating, Wheat [9]: 60 | Wheat plant response rating [9]: 0 | Plant response rating, Ryegrass, Italian [10, 29]: 50 | Plant response rating, Ryegrass, Italian [10, 30]: 90 | Plant response rating, Pigweed, Palmer [11]: 100 | Pigweed, Palmer plant response rating [11]: 100 | Plant response rating, Soybean [12, 29]: 100 | Plant response rating, Soybean [12, 30]: 100 | Plant response rating, Foxtail, Green [13, 29]: 20 | Plant response rating, Foxtail, Green [13, 30]: 90 | Plant response rating, Barnyardgrass [14]: 100 | Barnyardgrass plant response rating [14]: 70 | Plant response rating, Barnyardgrass (Flood) [15]: 35 | Plant response rating, Oat, Wild [16, 29]: 10 | Plant response rating, Oat, Wild [16, 30]: 50 | Plant response rating, Ducksalad (Flood) [17]: 75 | Plant response rating, Soybean [18]: 80 | Soybean plant response rating [18]: 90 | Plant response rating, Wheat [19, 29]: 20 | Plant response rating, Wheat [19, 30]: 30 | Plant response rating, Foxtail, Green [20]: 100 | Foxtail, Green plant response rating [20]: 100 | Plant response rating, Blackgrass [21, 29]: 40 | Plant response rating, Blackgrass [21, 30]: 60 | Plant response rating, Ragweed [22]: 80 | Ragweed plant response rating [22]: 60 | Plant response rating, Pigweed, Palmer [23, 29]: 90 | Plant response rating, Pigweed, Palmer [23, 30]: 90 | Plant response rating, Corn [24, 29]: 30 | Plant response rating, Corn [24, 30]: 80 | Plant response rating, Ragweed [25, 29]: 80 | Plant response rating, Ragweed [25, 30]: 90 | Plant response rating, Kochia [26, 29]: 80 | Plant response rating, Kochia [26, 30]: 100 | Plant response rating, Oat, Wild [27]: 90 | Oat, Wild plant response rating [27]: 90 | Plant response rating, Blackgrass [28]: 80 | Blackgrass plant response rating [28]: 40

— US20260262643A1, “HERBICIDAL BENZOXAZINES” (FMC CORPORATION, priority 2022, published 2026)
